Reference: patent US8476265B2, “Compounds-801” (AstraZeneca AB, priority 2010, dated 2013)

Assays:
[1] = molecular target: T1, Adrenergic β2 (Homo sapiens, UniProt P07550); experiment: Adrenergic β2 mediated cAMP production in H292 cells, single concentration 1 μM; format: cell-based; conditions: cAMP as percentage of the maximum response generated by 1E-07M formoterol; for percent of formoterol maximum response at 1 µM: NCI-H292, 1 μM compound, read-out: β2 % effect @1 uM
T1 construct: Adherent H292 cells are removed from tissue culture flasks by treatment with Accutase™ cell detachment solution; endogenous in cells; host or cells: H292 cells
T1 sequence (P07550 whole entry): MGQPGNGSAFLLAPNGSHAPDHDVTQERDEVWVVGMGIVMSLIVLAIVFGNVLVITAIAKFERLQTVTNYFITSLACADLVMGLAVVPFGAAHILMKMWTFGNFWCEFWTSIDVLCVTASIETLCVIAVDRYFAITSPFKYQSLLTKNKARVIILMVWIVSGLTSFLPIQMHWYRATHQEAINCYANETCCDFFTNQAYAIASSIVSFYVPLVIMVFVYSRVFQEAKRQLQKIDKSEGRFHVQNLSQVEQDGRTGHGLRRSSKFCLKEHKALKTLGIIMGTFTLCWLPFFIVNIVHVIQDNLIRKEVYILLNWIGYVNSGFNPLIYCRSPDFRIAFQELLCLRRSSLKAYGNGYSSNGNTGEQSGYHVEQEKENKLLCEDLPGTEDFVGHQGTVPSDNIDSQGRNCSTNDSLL
Outline: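 H292 cells pretreated with rolipram (300 μM final) 10 min, then compound at 1 μM final, 1% DMSO, 60 min at room temperature in HBSS/10 mM HEPES pH 7.4/5 mM glucose. Lysate cAMP quantified by AlphaScreen against a standard curve, as % of maximal response to 1E-07M formoterol.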

[2] = molecular target: T2, human muscarinic acetylcholine M3 receptor (Homo sapiens, UniProt P20309); experiment: Muscarinic 3 receptor binding assay ([3H]NMS competition, SPA), single concentration 1 μM; conditions: 1 μM compound; % inhibition specific [3H]-NMS binding
T2 construct: expressed in transfected cells; host or cells: CHO-K1 (Chinese Hamster Ovary) cell membranes
T2 sequence (P20309 whole entry): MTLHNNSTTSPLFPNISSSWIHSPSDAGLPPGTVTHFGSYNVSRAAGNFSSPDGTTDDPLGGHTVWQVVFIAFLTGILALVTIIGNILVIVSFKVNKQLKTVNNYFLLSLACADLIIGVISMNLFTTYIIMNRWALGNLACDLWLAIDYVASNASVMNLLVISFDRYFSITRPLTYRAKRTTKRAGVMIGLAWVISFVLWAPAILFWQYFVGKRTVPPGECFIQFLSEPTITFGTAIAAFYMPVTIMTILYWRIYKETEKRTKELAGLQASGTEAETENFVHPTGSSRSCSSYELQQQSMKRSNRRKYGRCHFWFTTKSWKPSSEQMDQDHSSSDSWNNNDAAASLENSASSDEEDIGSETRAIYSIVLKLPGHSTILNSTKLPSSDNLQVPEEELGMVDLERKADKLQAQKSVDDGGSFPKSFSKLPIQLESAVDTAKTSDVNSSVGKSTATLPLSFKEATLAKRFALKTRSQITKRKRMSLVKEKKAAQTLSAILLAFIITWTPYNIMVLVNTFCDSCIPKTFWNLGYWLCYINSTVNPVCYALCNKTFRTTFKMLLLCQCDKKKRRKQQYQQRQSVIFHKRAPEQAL
Outline: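 CHO-K1 membranes expressing human M3 on SPA beads, competition with 0.1 nM [3H]NMS (quarter Kd) in 20 mM HEPES pH 7.4, 5 mM MgCl2, 0.1% BSA, 1% DMSO; compound at 1 μM. 16 h at room temperature. Value is % inhibition of specific binding, non-specific defined with 1 μM atropine.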

percent of formoterol maximum response at 1 µM [1] [%] | inhibition at 1 µM [2] [%] | SMILES | β2 % effect @1 uM ([1]; 1 μM compound) [%] | M3 % inhibition @1 uM [2] [%]
88 | 100 | CC(C)C[C@H](O)C(=O)N1CCOC2(CCN(Cc3cccc(CCOCCC(=O)N(CCNCCc4ccc(O)c5c4OCC(=O)N5)C4CCCCC4)c3)CC2)C1 [Example 137, (S)-N-Cyclohexyl-N-(2-(2-(5-hydroxy-3-oxo-3,4-dihydro-2H-benzo[b][1,4]oxazin-8-yl)ethylamino)ethyl)-3-(3-((4-(2-hydroxy-4-methylpentanoyl)-1-oxa-4,9-diazaspiro[5.5]undecan-9-yl)methyl)phenethoxy)propanamide] | – | –
97 | 96 | Cc1ncc(Br)cc1C(=O)N1CCOC2(CCN(Cc3cccc(CCOCCC(=O)N(CCNCCc4ccc(O)c5c4OCC(=O)N5)C4CCCCC4)c3)CC2)C1 [Example 118, 3-(3-((4-(5-Bromo-2-methylnicotinoyl)-1-oxa-4,9-diazaspiro[5.5]undecan-9-yl)methyl)phenethoxy)-N-cyclohexyl-N-(2-(2-(5-hydroxy-3-oxo-3,4-dihydro-2H-benzo[b][1,4]oxazin-8-yl)ethylamino)ethyl)propanamide] | – | –
97 | 99 | O=C1COc2c(CCNCCN(C(=O)CCOCCc3cccc(CN4CCC5(CC4)CN(C(=O)CC4C[C@@H]6CC[C@H]4C6)CCO5)c3)C3CCCCC3)ccc(O)c2N1 (stereo partly drawn) [Example 131, 3-(3-((4-(2-((1S,4R)-Bicyclo[2.2.1]heptan-2-yl)acetyl)-1-oxa-4,9-diazaspiro[5.5]undecan-9-yl)methyl)phenethoxy)-N-cyclohexyl-N-(2-(2-(5-hydroxy-3-oxo-3,4-dihydro-2H-benzo[b][1,4]oxazin-8-yl)ethylamino)ethyl)propanamide] | – | –
110 | 99 | O=C1COc2c(CCNCCN(C(=O)CCOCCc3cccc(CN4CCC5(CC4)CN(C(=O)[C@@H](O)C4CCCCC4)CCO5)c3)C3CCCCC3)ccc(O)c2N1 [Example 129, (S)-N-Cyclohexyl-3-(3-((4-(2-cyclohexyl-2-hydroxyacetyl)-1-oxa-4,9-diazaspiro[5.5]undecan-9-yl)methyl)phenethoxy)-N-(2-(2-(5-hydroxy-3-oxo-3,4-dihydro-2H-benzo[b][1,4]oxazin-8-yl)ethylamino)ethyl)propanamide] | – | –
106 | 100 | COC1CCCC(C(=O)N2CCOC3(CCN(Cc4cccc(CCOCCC(=O)N(CCNCCc5ccc(O)c6c5OCC(=O)N6)C5CCCCC5)c4)CC3)C2)C1 (stereo not shown) [Example 114, N-Cyclohexyl-N-(2-(2-(5-hydroxy-3-oxo-3,4-dihydro-2H-benzo[b][1,4]oxazin-8-yl)ethylamino)ethyl)-3-(3-((4-(3-methoxycyclohexanecarbonyl)-1-oxa-4,9-diazaspiro[5.5]undecan-9-yl)methyl)phenethoxy)propanamide] | – | –
109 | 99 | O=C1COc2c(CCNCCN(C(=O)CCOCCc3cccc(CN4CCC5(CC4)CN(C(=O)C4CC=CCC4)CCO5)c3)C3CCCCC3)ccc(O)c2N1 (stereo not shown) [Example 105, 3-(3-((4-(Cyclohex-3-enecarbonyl)-1-oxa-4,9-diazaspiro[5.5]undecan-9-yl)methyl)phenethoxy)-N-cyclohexyl-N-(2-(2-(5-hydroxy-3-oxo-3,4-dihydro-2H-benzo[b][1,4]oxazin-8-yl)ethylamino)ethyl)propanamide] | – | –
108 | 99 | O=C1COc2c(CCNCCN(C(=O)CCOCCc3cccc(CN4CCC5(CC4)CN(C(=O)c4cncc(Br)c4)CCO5)c3)C3CCCCC3)ccc(O)c2N1 [Example 102, 3-(3-((4-(5-Bromonicotinoyl)-1-oxa-4,9-diazaspiro[5.5]undecan-9-yl)methyl)phenethoxy)-N-cyclohexyl-N-(2-(2-(5-hydroxy-3-oxo-3,4-dihydro-2H-benzo[b][1,4]oxazin-8-yl)ethylamino)ethyl)propanamide] | – | –
83 | 101 | O=C1COc2c(CCNCCN(C(=O)CCOCCc3cccc(CN4CCC5(CC4)CN(C(=O)c4n[nH]cc4Cl)CCO5)c3)C3CCCCC3)ccc(O)c2N1 [Example 133, 3-(3-((4-(4-Chloro-1H-pyrazole-3-carbonyl)-1-oxa-4,9-diazaspiro[5.5]undecan-9-yl)methyl)phenethoxy)-N-cyclohexyl-N-(2-(2-(5-hydroxy-3-oxo-3,4-dihydro-2H-benzo[b][1,4]oxazin-8-yl)ethylamino)ethyl)propanamide] | – | –

The remaining lines, values behind:

SMILES | percent of formoterol maximum response at 1 µM [1] [%] | inhibition at 1 µM [2] [%] | β2 % effect @1 uM ([1]; 1 μM compound) [%] | M3 % inhibition @1 uM [2] [%]
O=C1COc2c(CCNCCN(C(=O)CCOCCc3cccc(CN4CCC5(CC4)CN(C(=O)C(CO)c4ccccc4)CCO5)c3)C3CCCCC3)ccc(O)c2N1 (stereo not shown) [Example 104, N-Cyclohexyl-3-(3-((4-(3-hydroxy-2-phenylpropanoyl)-1-oxa-4,9-diazaspiro[5.5]undecan-9-yl)methyl)phenethoxy)-N-(2-(2-(5-hydroxy-3-oxo-3,4-dihydro-2H-benzo[b][1,4]oxazin-8-yl)ethylamino)ethyl)propanamide] | 100 | 101 | – | –
O=C1COc2c(CCNCCN(C(=O)CCOCCc3cccc(CN4CCC5(CC4)CN(C(=O)[C@H](O)c4ccccc4)CCO5)c3)C3CCCCC3)ccc(O)c2N1 [Example 166, (R)-N-Cyclohexyl-3-(3-((4-(2-hydroxy-2-phenylacetyl)-1-oxa-4,9-diazaspiro[5.5]undecan-9-yl)methyl)phenethoxy)-N-(2-(2-(5-hydroxy-3-oxo-3,4-dihydro-2H-benzo[b][1,4]oxazin-8-yl)ethylamino)ethyl)propanamide] | 96 | 100 | – | –
O=C1COc2c(CCNCCN(C(=O)CCOCCc3cccc(CN4CCC5(CC4)CN(C(=O)c4cccc6cccnc46)CCO5)c3)C3CCCCC3)ccc(O)c2N1 [Example 100, N-Cyclohexyl-N-(2-(2-(5-hydroxy-3-oxo-3,4-dihydro-2H-benzo[b][1,4]oxazin-8-yl)ethylamino)ethyl)-3-(3-((4-(quinoline-8-carbonyl)-1-oxa-4,9-diazaspiro[5.5]undecan-9-yl)methyl)phenethoxy)propanamide] | 95 | 96 | – | –
O=C1COc2c(CCNCCN(C(=O)CCOCCc3cccc(CN4CCC5(CC4)CN(C(=O)[C@H](O)c4cccc(Cl)c4)CCO5)c3)C3CCCCC3)ccc(O)c2N1 [Example 130, (R)-3-(3-((4-(2-(3-Chlorophenyl)-2-hydroxyacetyl)-1-oxa-4,9-diazaspiro[5.5]undecan-9-yl)methyl)phenethoxy)-N-cyclohexyl-N-(2-(2-(5-hydroxy-3-oxo-3,4-dihydro-2H-benzo[b][1,4]oxazin-8-yl)ethylamino)ethyl)propanamide] | 114 | 99 | – | –
Cc1cc(C)n2nc(C(=O)N3CCOC4(CCN(Cc5cccc(CCOCCC(=O)N(CCNCCc6ccc(O)c7c6OCC(=O)N7)C6CCCCC6)c5)CC4)C3)cc2n1 [Example 142, N-Cyclohexyl-3-(3-((4-(5,7-dimethylpyrazolo[1,5-a]pyrimidine-2-carbonyl)-1-oxa-4,9-diazaspiro[5.5]undecan-9-yl)methyl)phenethoxy)-N-(2-(2-(5-hydroxy-3-oxo-3,4-dihydro-2H-benzo[b][1,4]oxazin-8-yl)ethylamino)ethyl)propanamide] | 83 | 100 | – | –
O=C1COc2c(CCNCCN(C(=O)CCOCCc3cccc(CN4CCC5(CC4)CN(C(=O)C46CC7CC(F)(CC(F)(C7)C4)C6)CCO5)c3)C3CCCCC3)ccc(O)c2N1 [Example 143] | – | – | 105 | 101
O=C1COc2c(CCNCCN(C(=O)CCOCCc3cccc(CN4CCC5(CC4)CN(C(=O)Cn4cnc6ccccc64)CCO5)c3)C3CCCCC3)ccc(O)c2N1 [Example 125, 3-(3-((4-(2-(1H-Benzo[d]imidazol-1-yl)acetyl)-1-oxa-4,9-diazaspiro[5.5]undecan-9-yl)methyl)phenethoxy)-N-cyclohexyl-N-(2-(2-(5-hydroxy-3-oxo-3,4-dihydro-2H-benzo[b][1,4]oxazin-8-yl)ethylamino)ethyl)propanamide] | 114 | 93 | – | –
O=C1COc2c(CCNCCN(C(=O)CCOCCc3cccc(CN4CCC5(CC4)CN(C(=O)c4cccc6[nH]ccc46)CCO5)c3)C3CCCCC3)ccc(O)c2N1 [Example 168, 3-(3-((4-(1H-Indole-4-carbonyl)-1-oxa-4,9-diazaspiro[5.5]undecan-9-yl)methyl)phenethoxy)-N-cyclohexyl-N-(2-(2-(5-hydroxy-3-oxo-3,4-dihydro-2H-benzo[b][1,4]oxazin-8-yl)ethylamino)ethyl)propanamide] | 103 | 92 | – | –
Cc1ccc2nc(C(=O)N3CCOC4(CCN(Cc5cccc(CCOCCC(=O)N(CCNCCc6ccc(O)c7c6OCC(=O)N7)C6CCCCC6)c5)CC4)C3)cn2c1 [Example 172, N-Cyclohexyl-N-(2-(2-(5-hydroxy-3-oxo-3,4-dihydro-2H-benzo[b][1,4]oxazin-8-yl)ethylamino)ethyl)-3-(3-((4-(6-methylimidazo[1,2-a]pyridine-2-carbonyl)-1-oxa-4,9-diazaspiro[5.5]undecan-9-yl)methyl)phenethoxy)propanamide] | 94 | 91 | – | –
